Results reported in patent publication US10065990B2, “Cyclic peptide compound, and preparation method, pharmaceutical composition and use thereof” (HANGZHOU GUANYU BIO-MEDICAL CO., LTD, priority 2013, dated 2018).
Where two headings read alike, the source gives them in different places.

Tests used:
HDAC1 = HDAC1 (Homo sapiens, UniProt Q13547); experiment: HDAC biochemical activity measurement (fluorescent substrate deacetylation);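 also: fluorogenic acetyl-lysine substrate (20 µM) deacetylated by HDAC1, then developer releases fluorophore read at 360 nm excitation and 460 nm emission, inhibitor incubated 30 min at 37 °C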
HDAC1, sequence (Q13547 whole entry, species assumed): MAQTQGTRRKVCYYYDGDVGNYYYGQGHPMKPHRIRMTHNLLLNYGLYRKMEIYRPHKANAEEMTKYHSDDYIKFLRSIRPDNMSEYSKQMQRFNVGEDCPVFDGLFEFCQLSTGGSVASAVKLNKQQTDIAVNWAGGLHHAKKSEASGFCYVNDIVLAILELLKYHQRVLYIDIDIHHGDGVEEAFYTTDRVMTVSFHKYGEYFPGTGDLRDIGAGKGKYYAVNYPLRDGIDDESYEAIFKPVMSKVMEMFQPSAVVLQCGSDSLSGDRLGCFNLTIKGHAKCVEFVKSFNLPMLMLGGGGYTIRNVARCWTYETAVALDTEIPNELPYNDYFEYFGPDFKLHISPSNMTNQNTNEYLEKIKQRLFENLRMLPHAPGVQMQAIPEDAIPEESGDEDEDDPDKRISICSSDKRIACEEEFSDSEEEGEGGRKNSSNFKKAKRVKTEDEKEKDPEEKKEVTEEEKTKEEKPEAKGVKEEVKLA

HDAC8 = molecular target: T1, HDAC8 (Homo sapiens, UniProt Q9BY41); experiment: as above; settings: 37° C. 30 minutes
T1 sequence (Q9BY41 1-377): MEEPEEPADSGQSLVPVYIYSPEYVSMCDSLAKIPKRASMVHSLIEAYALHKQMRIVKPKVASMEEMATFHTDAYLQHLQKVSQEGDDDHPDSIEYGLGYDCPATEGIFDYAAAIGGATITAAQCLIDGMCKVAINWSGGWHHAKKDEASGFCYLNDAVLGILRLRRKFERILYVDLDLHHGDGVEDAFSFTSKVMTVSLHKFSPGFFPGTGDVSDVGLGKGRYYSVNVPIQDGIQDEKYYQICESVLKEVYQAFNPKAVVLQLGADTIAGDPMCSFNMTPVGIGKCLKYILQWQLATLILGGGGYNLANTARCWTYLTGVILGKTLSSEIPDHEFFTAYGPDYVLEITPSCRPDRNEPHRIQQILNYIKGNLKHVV

HDAC2 = HDAC2 (Homo sapiens, UniProt Q92769); experiment: as above; settings: 37° C. 30 minutes;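 also: HDAC2 enzyme with an acetyl-lysine fluorescent substrate, then developer added, fluorescence read at excitation 360 nm and emission 460 nm, inhibition measured across several compound concentrations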
HDAC2, sequence (Q92769 whole entry, species assumed): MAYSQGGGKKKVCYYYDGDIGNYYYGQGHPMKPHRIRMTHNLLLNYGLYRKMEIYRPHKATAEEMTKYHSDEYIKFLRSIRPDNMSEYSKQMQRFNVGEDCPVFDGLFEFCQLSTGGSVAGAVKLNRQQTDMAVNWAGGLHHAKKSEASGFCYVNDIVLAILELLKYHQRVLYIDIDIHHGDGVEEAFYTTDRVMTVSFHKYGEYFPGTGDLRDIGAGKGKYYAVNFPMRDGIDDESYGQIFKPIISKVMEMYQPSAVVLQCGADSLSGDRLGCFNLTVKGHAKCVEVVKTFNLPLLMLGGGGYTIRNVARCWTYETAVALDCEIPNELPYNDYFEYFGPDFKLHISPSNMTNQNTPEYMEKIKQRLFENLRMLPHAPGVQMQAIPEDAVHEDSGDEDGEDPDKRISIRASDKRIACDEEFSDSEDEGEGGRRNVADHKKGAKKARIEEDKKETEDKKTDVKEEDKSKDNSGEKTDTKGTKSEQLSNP
Method: The chemical activity of the compound is determined according to the degree of deacetylation inhibition of the HDAC enzyme. This experiment measured the degree of deacetylation related to tumor proliferation and metastasis of HDAC1, HDAC2, HDAC3, HDAC8, HDAC11 five subtypes HDAC enzymes. After the substrate containing an acetylated lysine side chain and HDAC enzyme are labeled with a fluorescent label, the fluorescent substrate is de acetyl. The fluorescent labeled substrate is cleaved by the enzyme, and the fluorescent substance is released, which generates 460 nm emission light under the excitation of 360 nm light.
HDAC substrate was diluted with reaction buffer to 200M (reaction concentration of 20M), the HDAC enzyme was diluted to the appropriate concentration, then added different concentrations of the test compounds and acted at 37° C. 30 minutes, and then added the same volume of 2-times concentration substrate developing solution (developer), incubated at room temperature for 15 minutes.

HDAC11 = molecular target: T2, HDAC11 (Homo sapiens, UniProt Q96DB2); experiment: as above;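 also: HDAC11 enzyme acting on an acetyl-lysine fluorogenic substrate, then a developer frees the fluorophore, read at excitation 360 nm and emission 460 nm, IC50 over a compound dilution series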
T2 sequence (Q96DB2 1-347): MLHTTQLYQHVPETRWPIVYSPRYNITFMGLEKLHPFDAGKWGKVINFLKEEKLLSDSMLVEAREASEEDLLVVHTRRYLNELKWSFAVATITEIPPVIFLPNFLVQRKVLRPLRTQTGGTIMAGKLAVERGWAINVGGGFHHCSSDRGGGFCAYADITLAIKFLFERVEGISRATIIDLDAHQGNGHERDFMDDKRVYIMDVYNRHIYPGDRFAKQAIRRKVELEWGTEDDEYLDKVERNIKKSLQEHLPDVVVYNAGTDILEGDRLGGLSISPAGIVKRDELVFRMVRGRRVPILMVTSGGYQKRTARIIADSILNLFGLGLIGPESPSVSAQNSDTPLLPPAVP

[1] = tested on: HCC827 (human non-small cell lung cancer cells); experiment: MTT cancer cell growth inhibition; type: cell-based; settings: MTT, 72 hours incubation, HCC827 cells, read-out: GI50 HCC827
How it was run: (§1)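 72 h exposure, final drug 10^−5–10^−10 M, triplicate wells; 1500 cells/well plated the day before; medium DMEM or 1640 + 10% FBS; 37° C./5% CO2. MTT (5 mg/ml stock) 4 h, DMSO solubilisation, A570 → % viability → GI50.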

[2] = tested on: HT1080 (human fibrosarcoma cells); experiment: MTT cancer cell growth inhibition; type: cell-based; settings: MTT
How it was run: as §1

[3] = tested on: N-87 (human gastric cancer cells); experiment: MTT cancer cell growth inhibition; type: cell-based; settings: MTT, 72 hours incubation, N-87 cells, read-out: GI50 N-87
How it was run: as §1

[4] = tested on: K562 (human leukemia cells); experiment: MTT cancer cell growth inhibition; type: cell-based; settings: MTT, 72 hours incubation, K562 cells, read-out: GI50 K562
How it was run: as §1

[5] = tested on: Bel-7402 (human hepatoma cells); experiment: MTT cancer cell growth inhibition; type: cell-based; settings: MTT, 72 hours incubation, Bel-7402 cells, read-out: GI50 Bel-7402
How it was run: as §1

HDAC3 = HDAC3 (Homo sapiens, UniProt O15379); experiment: HDAC biochemical activity measurement (fluorescent substrate deacetylation);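 also: fluorogenic acetyl-lysine substrate (20 µM) deacetylated by HDAC3, then developer added for 15 min at room temperature, release of fluorophore read at excitation 360 nm, emission 460 nm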
HDAC3, sequence (O15379 whole entry, species assumed): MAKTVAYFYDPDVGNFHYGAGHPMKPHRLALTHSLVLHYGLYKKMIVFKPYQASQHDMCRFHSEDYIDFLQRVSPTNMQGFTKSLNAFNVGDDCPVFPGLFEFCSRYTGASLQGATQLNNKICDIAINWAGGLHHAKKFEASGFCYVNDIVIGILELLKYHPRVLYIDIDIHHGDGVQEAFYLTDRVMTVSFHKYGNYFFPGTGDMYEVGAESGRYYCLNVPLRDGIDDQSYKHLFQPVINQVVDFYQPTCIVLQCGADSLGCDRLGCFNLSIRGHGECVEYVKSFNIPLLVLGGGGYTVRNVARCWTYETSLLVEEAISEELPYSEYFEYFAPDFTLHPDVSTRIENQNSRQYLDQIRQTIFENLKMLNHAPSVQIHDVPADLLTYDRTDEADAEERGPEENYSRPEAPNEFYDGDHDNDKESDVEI
HDAC3, sequence (Q9Y618 395-489 partner limits assumed, species assumed): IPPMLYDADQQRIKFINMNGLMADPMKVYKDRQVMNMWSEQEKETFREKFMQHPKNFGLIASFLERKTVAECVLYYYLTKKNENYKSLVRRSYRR

HDAC7 = molecular target: T3, HDAC7 (Homo sapiens, UniProt Q8WUI4); experiment: as above; settings: HDAC7; 37° C. 30 minutes;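 also: fluorogenic deacetylation assay using acetyl-lysine substrate at 20 µM, enzyme and compound incubated 30 min at 37 °C, then developer added, fluorescence read at 360/460 nm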
T3 sequence (Q8WUI4 1-952): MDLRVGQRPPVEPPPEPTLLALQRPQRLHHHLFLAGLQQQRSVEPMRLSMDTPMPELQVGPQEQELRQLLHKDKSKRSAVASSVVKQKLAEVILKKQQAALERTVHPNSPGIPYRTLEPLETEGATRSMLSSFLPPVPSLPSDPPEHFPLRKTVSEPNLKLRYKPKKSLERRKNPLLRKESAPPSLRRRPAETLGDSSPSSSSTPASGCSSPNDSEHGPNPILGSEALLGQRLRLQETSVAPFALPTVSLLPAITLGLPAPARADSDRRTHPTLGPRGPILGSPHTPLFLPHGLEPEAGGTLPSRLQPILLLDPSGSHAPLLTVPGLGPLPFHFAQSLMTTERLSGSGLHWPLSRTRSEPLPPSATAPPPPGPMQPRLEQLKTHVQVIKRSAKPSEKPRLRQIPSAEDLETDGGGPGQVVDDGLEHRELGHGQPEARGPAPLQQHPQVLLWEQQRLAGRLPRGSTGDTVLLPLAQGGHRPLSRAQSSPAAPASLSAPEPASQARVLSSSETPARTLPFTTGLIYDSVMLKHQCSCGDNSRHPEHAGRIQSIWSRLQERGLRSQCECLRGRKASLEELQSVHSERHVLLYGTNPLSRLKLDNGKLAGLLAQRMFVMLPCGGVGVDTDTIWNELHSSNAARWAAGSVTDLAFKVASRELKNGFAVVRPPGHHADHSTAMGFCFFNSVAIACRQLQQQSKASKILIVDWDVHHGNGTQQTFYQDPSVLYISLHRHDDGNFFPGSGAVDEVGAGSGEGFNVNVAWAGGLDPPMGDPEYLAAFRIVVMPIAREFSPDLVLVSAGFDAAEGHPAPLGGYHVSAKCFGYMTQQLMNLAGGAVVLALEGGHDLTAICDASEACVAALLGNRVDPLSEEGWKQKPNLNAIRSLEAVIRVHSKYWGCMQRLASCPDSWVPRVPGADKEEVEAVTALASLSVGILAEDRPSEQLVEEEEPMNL

[6] = HDAC1, 37° C. 30 minutes, read-out: IC50 HDAC1
[7] = Table 2, read-out: IC50 HDAC1, a (compounds of the present invention)
[8] = read-out: IC50 HDAC11, HDAC11, 37° C. 30 minutes
[9] = Homo sapiens, HT-1080, 72 h, HT1080 cells, 72 hours incubation, read-out: GI50 HT1
[10] = Homo sapiens, HT-1080, 72 h, 72 hours, present invention, read-out: GI50 HT1080, a
[11] = read-out: IC50 HDAC3, HDAC3, 37° C. 30 minutes
[12] = Homo sapiens, HT-1080, 72 h, 72 hours incubation, read-out: GI50 HT1
[13] = Table 3, read-out: IC50 HDAC1, D (non-substituent)
[14] = Table 3, column C, read-out: IC50 HDAC1, C (six-membered ring with substituents)

Row | Compound | IC50 (HDAC1; [6]) [nM] | IC50 (HDAC8) [nM] | IC50 (HDAC2) [nM] | IC50 (HDAC11; [8]) [nM] | GI50 ([1]; Homo sapiens, HCC827, 72 h) [nM] | GI50 [2, 9] [nM] | GI50 ([3]; Homo sapiens, 72 h) [nM] | GI50 ([4]; Homo sapiens, K562, 72 h) [nM] | GI50 ([5]; Homo sapiens, Bel-7402, 72 h) [nM] | IC50 (HDAC3; [11]) [nM] | IC50 HDAC7 (HDAC7) | IC50 (HDAC11) [nM] | GI50 [2, 12] [nM] | IC50 (HDAC3) [nM] | other results
1 | C/C=C1\NC(=O)c2cc(F)cc(n2)CCNC(=O)C[C@@H](/C=C/CCSC(C)=O)OC(=O)[C@H](C(C)C)NC1=O [Compound 104] | 51 | 19 | 26 | – | 49 | – | 96 | 33 | 57 | – | no activity | 83 | 90 | 43 | –
2 | C/C=C1\NC(=O)c2cccc(n2)CNC(=O)C[C@@H](/C=C/CCSC(=O)CCCC)OC(=O)[C@H](C(C)C)NC1=O [Compound 4] | 183 | 161 | 251 | 201 | 22 | – | 53 | 61 | 92 | 152 | no activity | – | 70 | – | IC50 (HDAC1; [13]): 183 nM
3 | C/C=C1\NC(=O)c2nc(ccc2F)CNC(=O)C[C@@H](/C=C/CCSC(=O)CCCCCCC)OC(=O)[C@H](C(C)C)NC1=O [Compound 30] | 12 | 43 | 56 | 84 | 82 | – | 30 | 38 | 82 | 34 | no activity | – | 80 | – | IC50 (HDAC1; [14]): 12 nM
4 | C/C=C1\NC(=O)c2cccc(n2)CNC(=O)C[C@@H](/C=C/CCSC(C)=O)OC(=O)[C@H](C(C)C)NC1=O [Compound 7] | 87 | 39 | 17 | 11 | 54 | – | 29 | 41 | 82 | 7 | no activity | – | 20 | – | IC50 (HDAC1; [7]): < 500 nM; IC50 (HDAC1; [13]): 87 nM; GI50 [2, 10]: 27 nM
5 | C/C=C1\NC(=O)c2cc(SCCC)cc(n2)CNC(=O)C[C@@H](/C=C/CCSC(=O)CCCCCCC)OC(=O)[C@H](CC)NC1=O [Compound 175] | 41 | 69 | 32 | – | 13 | 50 | 49 | 39 | 105 | – | no activity | 55 | – | 11 | –

Continued by falling IC50 (HDAC1; [6]), values first:

Row | IC50 (HDAC1; [6]) [nM] | IC50 (HDAC8) [nM] | IC50 (HDAC2) [nM] | IC50 (HDAC11; [8]) [nM] | GI50 ([1]; Homo sapiens, HCC827, 72 h) [nM] | GI50 [2, 9] [nM] | GI50 ([3]; Homo sapiens, 72 h) [nM] | GI50 ([4]; Homo sapiens, K562, 72 h) [nM] | GI50 ([5]; Homo sapiens, Bel-7402, 72 h) [nM] | IC50 (HDAC3; [11]) [nM] | IC50 HDAC7 (HDAC7) | IC50 (HDAC11) [nM] | GI50 [2, 12] [nM] | IC50 (HDAC3) [nM] | Compound | other results
6 | 87 | 129 | 56 | 187 | 37 | 840 | 23 | 32 | 35 | 48 | no activity | – | – | – | C/C=C1\NC(=O)c2nc(ccc2C)CNC(=O)C[C@@H](/C=C/CCSC(=O)CCCCCCC)OC(=O)[C@H](C(C)C)NC1=O [Compound 243] | IC50 (HDAC1; [7]): < 100 nM; GI50 [2, 10]: 840 nM
7 | 73 | 42 | 51 | – | 25 | 40 | 73 | 71 | 65 | – | no activity | 92 | – | 34 | C/C=C1\NC(=O)c2ccc(SC)c(n2)CNC(=O)C[C@@H](/C=C/CCSC(C)=O)OC(=O)[C@H](CC)NC1=O [Compound 179] | –
8 | 72 | 28 | 31 | – | 28 | 80 | 28 | 32 | 96 | – | no activity | 72 | – | 36 | C/C=C1\NC(=O)c2nc(ccc2SC)CNC(=O)C[C@@H](/C=C/CCSC(=O)CCCCC)OC(=O)[C@H](C(C)C)NC1=O [Compound 153] | –
9 | 43 | 49 | 25 | – | 18 | 10 | 23 | 35 | 35 | – | no activity | 93 | – | 39 | C/C=C1\NC(=O)c2cc(SC)cc(n2)CNC(=O)C[C@@H](/C=C/CCSC(C)=O)OC(=O)[C@H](CCCCN)NC1=O [Compound 193] | –
10 | 35 | 78 | 43 | 93 | – | – | – | – | – | 122 | no activity | – | – | – | C/C=C1\NC(=O)c2ncc(SC)c(n2)CNC(=O)C[C@@H](/C=C/CCSC(C)=O)OC(=O)[C@H](C(C)C)NC1=O [Compound 217] | GI50 [1]: 29 nM; GI50 ([2]; HT1080 cells, 72 hours incubation, read-out: GI50 HT1): 20 nM; GI50 [3]: 57 nM; GI50 [4]: 62 nM; GI50 [5]: 37 nM
11 | 11 | 35 | 43 | 85 | 62 | – | 39 | 29 | 62 | 37 | no activity | – | 60 | – | C/C=C1\NC(=O)c2nc(ccc2F)CNC(=O)C[C@@H](/C=C/CCSC(=O)CCCCC)OC(=O)[C@H](C(C)C)NC1=O [Compound 36] | IC50 (HDAC1; [14]): 11 nM
12 | 8 | 47 | 19 | 19 | 85 | 20 | 63 | 42 | 91 | 35 | no activity | – | – | – | C/C=C1\NC(=O)c2cccc(n2)CNC(=O)C[C@@H](/C=C/CCSC(=O)CCCCCCC)OC(=O)CNC1=O [Compound 235] | IC50 (HDAC1; [7]): < 10 nM; GI50 [2, 10]: 24 nM
